{"source": "paper PMC2804029", "about": "(Journal of medicinal chemistry, 2010)", "key": {"[1]": {"biological_target": "T1, B. anthracis DHPS (Bacillus anthracis, UniProt Q81VW8)", "T1 sequence (Q81VW8 1-280)": "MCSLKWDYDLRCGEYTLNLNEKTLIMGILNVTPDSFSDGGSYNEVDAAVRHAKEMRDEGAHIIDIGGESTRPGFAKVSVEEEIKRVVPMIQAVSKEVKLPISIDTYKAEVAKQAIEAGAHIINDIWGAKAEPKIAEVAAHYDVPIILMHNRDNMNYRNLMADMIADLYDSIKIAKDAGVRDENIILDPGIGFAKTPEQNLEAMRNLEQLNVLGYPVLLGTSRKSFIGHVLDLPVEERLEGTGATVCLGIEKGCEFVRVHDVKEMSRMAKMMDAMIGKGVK", "type": "binding"}, "[2]": {"biological_target": "T1, B. anthracis DHPS", "assay": "biochemical", "type": "biochemical"}}, "note": "Entries after “also recorded” stand apart in the source; their conditions may differ."}
{"smiles": "Nc1ccc(C(=O)O)cc1", "note": "[pABA, p-aminobenzoic acid]", "values": [{"measurement": "binding (heats of binding) by ITC", "setting": "[1]", "value": "does not bind; also recorded: No heats of binding could be detected"}]}
{"smiles": "Nc1nc2[nH]c(S)nc2c(=O)[nH]1", "note": "[Compound 5]", "values": [{"measurement": "percentage inhibition of DHPS", "setting": "[2]", "value": "did not show inhibition; also recorded: little or no inhibition"}]}
{"smiles": "Nc1nc2c(c(=O)[nH]1)N=C(CO)CN2", "note": "[Control, 6-hydroxymethyl-7,8-dihydropterin]", "values": [{"measurement": "IC50", "setting": "[2]", "value": 58.4, "unit": "µM"}, {"measurement": "inhibition at 250 µM", "setting": "[2]; read-out: B. anthracis % inhibition", "value": 60, "unit": "%"}]}
